Target: BTK (Homo sapiens (Human), UniProt Q06187)
Test: Btk kinase assay (HTRF)
Assay type: biochemical
Details: [ATP]=80 μM, BTK=3.4 nM; read-out: BTK Inhibition
Method: Btk kinase activity was determined using a homogenous time resolved fluorescence (HTRF) methodology. Measurements were performed in a reaction volume of 15 μL using 384-well assay plates. Kinase enzyme, inhibitor, ATP and 1 μM peptide substrate were incubated in a reaction buffer compose of Hepes 50 mM (pH7.0), NaN3 0.02%, BSA 0.01%, Orthocanadate 0.1 mM. After one hour, the kinase reaction was quenched by the addition of […] antibody and XL-665 in 1× Detection buffer containing 60 mM EDTA (Cisbio), and the mixture was allowed to incubate for one hour. The HTRF signal was measured on a multimode plate reader (EnVision® Multilabel Reader, Perkin Elmer) with an excitation wavelength (λEx) of 330 nm and detection wavelengths (λEm) of 615 and 665 nrm. Activity was determined by the ratio of the fluorescence at 665 nm to that at 615 nm. For each compound, enzyme activity as measured at various concentrations of compound, Negative control reactions were performed in the absence of inhibitor in two replicates and eight no enzyme controls were used to determine baseline fluorescence levels. IC50s were obtained according to the equation: […] For BTK assay, [ATP]=80 μM, BTK=3.4 nM.

BTK, sequence (Q06187 whole entry, species assumed): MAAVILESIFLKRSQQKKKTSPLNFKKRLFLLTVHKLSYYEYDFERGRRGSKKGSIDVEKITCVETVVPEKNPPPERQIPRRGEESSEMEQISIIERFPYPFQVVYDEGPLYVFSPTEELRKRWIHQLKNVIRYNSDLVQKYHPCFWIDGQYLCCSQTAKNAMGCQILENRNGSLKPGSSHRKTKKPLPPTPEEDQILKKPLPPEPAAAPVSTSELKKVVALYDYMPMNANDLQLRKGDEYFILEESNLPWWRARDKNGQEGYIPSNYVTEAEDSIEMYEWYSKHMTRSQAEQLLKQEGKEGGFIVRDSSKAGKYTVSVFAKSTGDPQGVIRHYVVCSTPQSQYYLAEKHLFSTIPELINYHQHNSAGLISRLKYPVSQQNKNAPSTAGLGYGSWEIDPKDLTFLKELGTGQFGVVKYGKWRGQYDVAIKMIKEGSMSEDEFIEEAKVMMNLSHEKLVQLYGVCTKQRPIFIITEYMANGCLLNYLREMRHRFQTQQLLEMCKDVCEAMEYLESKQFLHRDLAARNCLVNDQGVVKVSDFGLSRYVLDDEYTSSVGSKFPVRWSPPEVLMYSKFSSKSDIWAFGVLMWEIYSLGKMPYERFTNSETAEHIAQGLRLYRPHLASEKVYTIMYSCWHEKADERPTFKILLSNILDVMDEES

Row | Compound | IC50 [nM]
1 | C=CC(=O)Nc1cccc(-n2c(=O)n(-c3ccc(Oc4cccc(Cl)c4)cc3)c3cnccc32)c1 [Example 69, N-(3-(3-(4-(3-chlorophenoxy)phenyl)-2-oxo-2,3-dihydro-1H-imidazo[4,5-c]pyridin-1-yl)phenyl)acrylamide] | 10 to 100
2 | C=CC(=O)Nc1cccc(-n2c(=O)n(-c3ccc(Oc4cccc(OC(F)(F)F)c4)cc3)c3cnccc32)c1 [Example 70, N-(3-(2-oxo-3-(4-(3-(trifluoromethoxy)phenoxy)phenyl)-2,3-dihydro-1H-imidazo[4,5-c]pyridin-1-yl)phenyl)acrylamide] | 1000 to 10000
3 | C=CC(=O)Nc1cccc(-n2c(=O)n(-c3ccc(Oc4cc(Cl)cc(OC)c4)cc3)c3cnccc32)c1 [Example 71, N-(3-(3-(4-(3-chloro-5-methoxyphenoxy)phenyl)-2-oxo-2,3-dihydro-1H-imidazo[4,5-c]pyridin-1-yl)phenyl)acrylamide] | 100 to 1000
4 | C=CC(=O)N1CC[C@@H](n2c(=O)n(-c3ccc(Oc4cccc(Cl)c4)cc3)c3cnccc32)C1 [Example 72, (R)-1-(1-acryloylpyrrolidin-3-yl)-3-(4-(3-chlorophenoxy)phenyl)-1H-imidazo[4,5-c]pyridin-2(3H)-one] | 10 to 100
5 | C=CC(=O)Nc1cccc(-n2c(=O)n(-c3ccc(Oc4ccccc4)c(Cl)c3)c3cnccc32)c1 [Example 73, N-(3-(3-(3-chloro-4-phenoxyphenyl)-2-oxo-2,3-dihydro-1H-imidazo[4,5-c]pyridin-1-yl)phenyl)acrylamide] | 10 to 100
6 | C=CC(=O)Nc1cccc(-n2c(=O)n(-c3cccc(Oc4cccc(Cl)c4)c3)c3cnccc32)c1 [Example 74, N-(3-(3-(3-(3-chlorophenoxy)phenyl)-2-oxo-2,3-dihydro-1H-imidazo[4,5-c]pyridin-1-yl)phenyl)acrylamide] | 10 to 100

Continued, values first:

Row | IC50 [nM] | Compound
7 | 10 to 100 | C=CC(=O)Nc1cccc(-n2c(=O)n(-c3cccc(Oc4cccc(F)c4)c3)c3cnccc32)c1 [Example 75, N-(3-(3-(3-(3-fluorophenoxy)phenyl)-2-oxo-2,3-dihydro-1H-imidazo[4,5-c]pyridin-1-yl)phenyl)acrylamide]
8 | 10 to 100 | C=CC(=O)Nc1cccc(-n2c(=O)n(-c3cccc(Oc4ccc(C)cc4)c3)c3cnccc32)c1 [Example 76, N-(3-(2-oxo-3-(3-(p-tolyloxy)phenyl)-2,3-dihydro-1H-imidazo[4,5-c]pyridin-1-yl)phenyl)acrylamide]
9 | 10 to 100 | C=CC(=O)N1CC[C@@H](n2c(=O)n(-c3ccc(Oc4cccc(F)c4)c(F)c3)c3cnccc32)C1 [Example 77, (R)-1-(1-acryloylpyrrolidin-3-yl)-3-(3-fluoro-4-(3-fluorophenoxy)phenyl)-1H-imidazo[4,5-c]pyridin-2(3H)-one]
10 | 10 to 100 | C=CC(=O)N1CC[C@@H](n2c(=O)n(-c3ccc(Oc4cccc(C)c4)c(F)c3)c3cnccc32)C1 [Example 78, (R)-1-(1-acryloylpyrrolidin-3-yl)-3-(3-fluoro-4-(m-tolyloxy)phenyl)-1H-imidazo[4,5-c]pyridin-2(3H)-one]
11 | 10 to 100 | C=CC(=O)Nc1cccc(-n2c(=O)n(-c3ccc(Oc4cccc(F)c4C)cc3)c3cnccc32)c1 [Example 79, N-(3-(3-(4-(3-fluoro-2-methylphenoxy)phenyl)-2-oxo-2,3-dihydro-1H-imidazo[4,5-c]pyridin-1-yl)phenyl)acrylamide]
12 | 100 to 1000 | C=CC(=O)Nc1cccc(-n2c(=O)n(-c3ccc(Oc4ccc(OC)cc4)cc3)c3cnccc32)c1 [Example 80, N-(3-(3-(4-(4-methoxyphenoxy)phenyl)-2-oxo-2,3-dihydro-1H-imidazo[4,5-c]pyridin-1-yl)phenyl)acrylamide]
13 | 100 to 1000 | C=CC(=O)N1CC[C@@H](n2c(=O)n(-c3ccc(Oc4ccc(F)cc4)cc3)c3cnccc32)C1 [Example 81, (R)-1-(1-acryloylpyrrolidin-3-yl)-3-(4-(4-fluorophenoxy)phenyl)-1H-imidazo[4,5-c]pyridin-2(3H)-one]

From patent publication US10358446B2, “Bruton's tyrosine kinase inhibitors” (Zibo Biopolar Changsheng Pharmaceutical Co. Ltd., priority 2015, dated 2019)
